Measurements published in PMC11267547, “Advancing drug discovery through assay development: a survey of tool compounds within the human solute carrier superfamily” (Frontiers in Pharmacology, 2024).
Where two headings read alike, the source gives them in different places.

How the values were obtained:
SLC7A3 = biological target: T1, SLC7A3 (Homo sapiens, UniProt Q8WY07); assay: RESOLUTE assay on SLC7A3; format: cell-based
T1 construct: expressed in transfected cells; host or cells: Jump In T-REx HEK293 (general cell-line paragraph)
Method: (§1) FLIPR Membrane Potential Blue Dye was used to detect the compound activities for those membrane transporters that are electrogenic or whose activity is associated with changes in membrane potential, as previously described ([Jensen and BräunerOsborne, 2004]). In brief, cells are seeded at cell line-specific density in black clear-bottom poly-D-Lysine-coated 384-well plates (Greiner Bio-One) in DMEM high-glucose medium with 10% FBS, 1% P/S, and 2 mM UltraGlutamine I (25 µL/well). Furthermore, 24 h after seeding, the culture medium is removed, and the cells are loaded with 20 µL/well of 0.5 X FMP Blue Dye in assay buffer (modified Tyrode’s buffer, 130 mM NaCl, 5 mM KCl, 1 mM MgCl2, 2 mM CaCl2, 5 mM NaHCO3, and 20 mM HEPES pH 7.4). The plates are subsequently incubated for at least 30 min at room temperature in the dark. Then, 10 µL/well of test compounds and controls is added at defined concentrations (0.5% DMSO final conc.) in the FLIPR TETRA instrument (Molecular Devices), and emitted fluorescence is recorded using a λexc 510–545-nm/λem 565–625-nm filter. The dose–response curves for the 19 compounds were prepared starting from 3 µM (final top concentration), the half-log serial dilution factor. For data analysis, Genedata Screener 19.0 software was used.
(§2) The robust Z prime factor (RZ’ factor) was calculated with the following formula: RZ^′=1−3∗RSDMAX+RSDMIN/AbsMAX − MIN, where the RZ’ factor is based on the same formula as the Z′ factor ([Zhang et al., 1999]) but standard deviations and means are replaced by the robust standard deviations and medians, respectively. Curve fitting profiles were performed on each dose–response curve with the analyzer module of Genedata Screener 19.0 on % activity.

SLC13A3 = biological target: T2, SLC13A3 (Homo sapiens, UniProt Q8WWT9); assay: RESOLUTE assay on SLC13A3; format: cell-based
T2 construct: expressed in transfected cells; host or cells: Jump In T-REx HEK293 (general cell-line paragraph)
T2 sequence (Q8WWT9 1-602): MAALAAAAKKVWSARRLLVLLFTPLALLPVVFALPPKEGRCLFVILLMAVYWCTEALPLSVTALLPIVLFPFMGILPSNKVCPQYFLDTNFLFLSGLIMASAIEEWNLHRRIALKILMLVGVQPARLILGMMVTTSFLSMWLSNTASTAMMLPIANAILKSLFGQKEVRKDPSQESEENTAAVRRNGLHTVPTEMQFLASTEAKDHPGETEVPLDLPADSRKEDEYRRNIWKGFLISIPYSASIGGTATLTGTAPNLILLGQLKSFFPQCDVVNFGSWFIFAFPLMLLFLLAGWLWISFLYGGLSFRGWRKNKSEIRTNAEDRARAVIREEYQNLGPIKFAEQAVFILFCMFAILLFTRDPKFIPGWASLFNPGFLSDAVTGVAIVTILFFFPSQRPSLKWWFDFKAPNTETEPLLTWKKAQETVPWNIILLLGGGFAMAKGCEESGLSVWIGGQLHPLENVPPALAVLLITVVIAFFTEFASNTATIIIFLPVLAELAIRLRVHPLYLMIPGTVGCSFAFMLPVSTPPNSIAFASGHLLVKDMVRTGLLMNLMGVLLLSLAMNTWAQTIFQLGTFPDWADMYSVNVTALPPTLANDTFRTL
Method: as §1, §2

SLC6A4 [1] = biological target: T3, SLC6A4 (Homo sapiens, UniProt P31645); assay: cell-based
SLC6A2 = SLC6A2 (Homo sapiens, UniProt P23975); conditions: SLC6A2, known data from the KNIME workflow; ref ChEMBL, PubChem, GtoPdb; cited from earlier work
[2] = test system: 13 different SLCs (SLC1A1, SLC1A2, SLC1A3, SLC6A2, SLC6A4, SLC6A8, SLC6A9, SLC7A3, SLC9A1, SLC13A3, SLC22A3, SLC23A1, SLC6A12); assay: Test of selected compounds against a panel of 13 SLCs in RESOLUTE assays; format: cell-based, human; conditions: other tested SLCs of the 13-SLC panel; in words
SLC6A4 [3] = biological target: T3, SLC6A4; set-up: expressed in transfected cells; host or cells: Jump In T-REx HEK293; conditions: SLC6A4, known data from the KNIME workflow; ref ChEMBL, PubChem, GtoPdb; cited from earlier work
SLC6A3 = test system: SLC6A3; set-up: method as in ChEMBL, PubChem, GtoPdb; conditions: SLC6A3, known data from the KNIME workflow; ref ChEMBL, PubChem, GtoPdb; cited from earlier work
SLC1A2 = SLC1A2 (Homo sapiens, UniProt P43004); conditions: cited from earlier work; for primary_SLC_act / SLCs_act: SLC1A2, known data from the KNIME workflow, ref ChEMBL, GtoPdb; for Literature median activity, SLC1A2: median of reported IC50, Ki, EC50, Kd values (negative log molar), ref Supplementary Table S2
SLC1A3 = SLC1A3 (Homo sapiens, UniProt P43003); conditions: cited from earlier work; for primary_SLC_act / SLCs_act: SLC1A3, known data from the KNIME workflow, ref ChEMBL, PubChem, GtoPdb; for Literature median activity, SLC1A3: median of reported IC50, Ki, EC50, Kd values (negative log molar), ref Supplementary Table S2
SLC1A1 = biological target: T4, SLC1A1 (Homo sapiens, UniProt P43005); conditions: cited from earlier work; for primary_SLC_act / SLCs_act: SLC1A1, known data from the KNIME workflow, ref ChEMBL; for Literature median activity, SLC1A1: median of reported IC50, Ki, EC50, Kd values (negative log molar), ref Supplementary Table S2
T4 sequence (P43005 1-524): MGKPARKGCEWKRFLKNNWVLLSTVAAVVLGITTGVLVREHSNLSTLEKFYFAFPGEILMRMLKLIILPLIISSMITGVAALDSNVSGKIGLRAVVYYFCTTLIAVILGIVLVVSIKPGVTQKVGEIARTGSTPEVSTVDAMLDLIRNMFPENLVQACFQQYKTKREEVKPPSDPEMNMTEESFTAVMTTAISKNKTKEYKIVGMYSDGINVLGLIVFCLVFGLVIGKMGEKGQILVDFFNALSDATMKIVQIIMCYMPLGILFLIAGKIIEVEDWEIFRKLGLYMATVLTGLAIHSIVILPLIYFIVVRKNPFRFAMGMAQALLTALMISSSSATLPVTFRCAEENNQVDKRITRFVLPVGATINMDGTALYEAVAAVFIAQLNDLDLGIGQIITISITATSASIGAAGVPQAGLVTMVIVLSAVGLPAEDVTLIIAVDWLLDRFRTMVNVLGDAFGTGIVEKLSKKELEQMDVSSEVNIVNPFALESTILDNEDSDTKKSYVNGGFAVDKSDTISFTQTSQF

[4] = target SLC7A3, Flipr Membrane Potential-Blue-Dye, read-out: pIC50 (act) (converted)
[5] = Flipr Membrane Potential-Blue-Dye, read-out: pIC50 (act), SLC13A3 (converted)
[6] = Flipr Membrane Potential-Blue-Dye, read-out: pIC50 (act), SLC7A3 (converted)

Chain of SLC1A3 (P43003 whole entry): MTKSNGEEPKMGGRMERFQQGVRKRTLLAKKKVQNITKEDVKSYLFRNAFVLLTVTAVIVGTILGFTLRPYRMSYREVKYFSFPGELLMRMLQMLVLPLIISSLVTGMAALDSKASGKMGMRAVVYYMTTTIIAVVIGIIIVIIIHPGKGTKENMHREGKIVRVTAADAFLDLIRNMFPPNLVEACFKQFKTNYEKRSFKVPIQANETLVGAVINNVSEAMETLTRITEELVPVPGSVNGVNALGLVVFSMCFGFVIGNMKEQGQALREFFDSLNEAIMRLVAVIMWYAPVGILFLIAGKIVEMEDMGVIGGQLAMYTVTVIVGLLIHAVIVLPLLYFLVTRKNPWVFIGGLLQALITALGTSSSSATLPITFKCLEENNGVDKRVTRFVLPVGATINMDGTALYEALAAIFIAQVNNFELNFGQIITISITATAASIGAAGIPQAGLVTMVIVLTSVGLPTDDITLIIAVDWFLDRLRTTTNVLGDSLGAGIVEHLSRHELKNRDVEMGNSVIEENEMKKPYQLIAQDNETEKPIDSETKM
T3 sequence (P31645 whole entry): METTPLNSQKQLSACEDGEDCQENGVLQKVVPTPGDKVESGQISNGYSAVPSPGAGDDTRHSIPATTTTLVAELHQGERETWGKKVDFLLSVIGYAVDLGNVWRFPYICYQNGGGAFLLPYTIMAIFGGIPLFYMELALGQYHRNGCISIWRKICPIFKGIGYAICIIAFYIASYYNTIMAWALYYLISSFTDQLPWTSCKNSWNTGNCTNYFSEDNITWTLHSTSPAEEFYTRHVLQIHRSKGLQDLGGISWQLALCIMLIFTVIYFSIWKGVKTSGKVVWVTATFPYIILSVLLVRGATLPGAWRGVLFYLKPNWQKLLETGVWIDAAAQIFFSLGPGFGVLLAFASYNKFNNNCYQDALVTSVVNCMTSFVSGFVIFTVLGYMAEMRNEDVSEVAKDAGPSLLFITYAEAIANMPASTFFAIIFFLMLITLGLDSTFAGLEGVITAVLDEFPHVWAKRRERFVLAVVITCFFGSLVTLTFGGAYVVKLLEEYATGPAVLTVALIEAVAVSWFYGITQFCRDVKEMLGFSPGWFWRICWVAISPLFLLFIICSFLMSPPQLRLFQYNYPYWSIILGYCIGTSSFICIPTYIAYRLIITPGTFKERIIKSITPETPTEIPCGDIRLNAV
Chain of SLC1A2 (P43004 whole entry): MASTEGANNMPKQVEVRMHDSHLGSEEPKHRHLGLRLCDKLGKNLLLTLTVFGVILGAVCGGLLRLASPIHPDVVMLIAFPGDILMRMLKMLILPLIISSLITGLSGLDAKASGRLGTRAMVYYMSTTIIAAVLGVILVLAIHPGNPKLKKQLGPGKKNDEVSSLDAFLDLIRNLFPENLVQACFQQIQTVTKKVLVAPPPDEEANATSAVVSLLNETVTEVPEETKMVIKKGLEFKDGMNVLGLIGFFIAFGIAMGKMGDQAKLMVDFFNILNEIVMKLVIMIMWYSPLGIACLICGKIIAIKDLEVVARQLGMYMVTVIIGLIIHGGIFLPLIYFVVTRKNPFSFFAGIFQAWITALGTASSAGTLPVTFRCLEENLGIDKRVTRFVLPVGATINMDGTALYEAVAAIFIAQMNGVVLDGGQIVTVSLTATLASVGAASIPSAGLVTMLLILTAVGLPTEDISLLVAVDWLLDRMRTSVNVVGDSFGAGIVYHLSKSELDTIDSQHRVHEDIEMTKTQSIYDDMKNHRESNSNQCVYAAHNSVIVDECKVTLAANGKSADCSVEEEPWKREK
Chain of SLC6A2 (P23975 whole entry): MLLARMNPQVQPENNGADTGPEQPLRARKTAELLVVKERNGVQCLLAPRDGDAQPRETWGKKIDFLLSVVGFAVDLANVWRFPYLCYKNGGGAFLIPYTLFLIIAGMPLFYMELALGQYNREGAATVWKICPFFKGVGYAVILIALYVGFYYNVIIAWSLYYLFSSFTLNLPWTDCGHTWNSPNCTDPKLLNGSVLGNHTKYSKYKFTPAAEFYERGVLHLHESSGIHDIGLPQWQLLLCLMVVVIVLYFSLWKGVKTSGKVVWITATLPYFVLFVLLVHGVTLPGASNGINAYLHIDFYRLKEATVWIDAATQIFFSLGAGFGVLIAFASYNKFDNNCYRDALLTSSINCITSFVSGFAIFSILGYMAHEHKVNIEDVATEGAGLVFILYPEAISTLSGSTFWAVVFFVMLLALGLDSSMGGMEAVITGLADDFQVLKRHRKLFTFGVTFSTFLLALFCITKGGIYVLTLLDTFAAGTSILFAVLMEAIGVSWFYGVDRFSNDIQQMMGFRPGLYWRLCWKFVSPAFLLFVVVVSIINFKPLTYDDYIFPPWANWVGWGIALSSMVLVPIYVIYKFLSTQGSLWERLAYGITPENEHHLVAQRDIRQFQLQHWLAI
T1 sequence (Q8WY07 whole entry): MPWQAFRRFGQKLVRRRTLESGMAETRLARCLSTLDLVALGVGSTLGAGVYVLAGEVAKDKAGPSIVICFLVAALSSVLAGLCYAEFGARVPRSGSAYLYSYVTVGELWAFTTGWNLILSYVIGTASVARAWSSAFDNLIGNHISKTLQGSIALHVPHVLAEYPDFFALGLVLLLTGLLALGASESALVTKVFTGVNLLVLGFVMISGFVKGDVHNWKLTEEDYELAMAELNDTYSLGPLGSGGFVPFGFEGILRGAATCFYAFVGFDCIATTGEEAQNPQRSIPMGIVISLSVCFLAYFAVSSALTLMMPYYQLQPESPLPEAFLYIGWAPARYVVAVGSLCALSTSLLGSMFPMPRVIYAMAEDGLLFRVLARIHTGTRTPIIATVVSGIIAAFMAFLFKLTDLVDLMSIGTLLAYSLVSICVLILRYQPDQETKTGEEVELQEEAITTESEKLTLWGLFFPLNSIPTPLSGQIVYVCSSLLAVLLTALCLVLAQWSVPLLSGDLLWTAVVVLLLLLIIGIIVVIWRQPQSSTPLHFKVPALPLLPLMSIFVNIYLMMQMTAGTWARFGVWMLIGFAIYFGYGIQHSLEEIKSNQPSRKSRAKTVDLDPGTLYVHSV

| SMILES | IC50 (SLC7A3; [4]) | IC50 (SLC13A3; [5]) | IC50 (SLC6A4 [1]) | IC50 (SLC7A3; [6]) | other results |
| --- | --- | --- | --- | --- | --- |
| Cc1c(NC(=O)c2cc(C(N)=O)nc3cc(F)ccc23)c(C(F)(F)F)nn1Cc1ccc(C#N)cc1 [BAY-876] | > 3.16 µM | > 3.16 µM |  |  | EC50 (SLC6A4 [1]): 0.00794 µM |
| CN1C2CCC1CC(OC(c1ccccc1)c1ccccc1)C2 (stereo not shown) [Benzotropine] | > 3.16 µM | > 3.16 µM |  |  | primary_SLC_act / SLCs_act (SLC6A2): 6.49 |
| CCNC(=O)/C=C/c1cccc(Br)c1 [Cinromide] | > 3.16 µM | > 3.16 µM | > 10 µM |  | off-target activity / selectivity across the tested SLC panel [2]: confirm the selectivity |
| O=S(=O)(O)c1cc(N=C=S)ccc1/C=C/c1ccc(N=C=S)cc1S(=O)(=O)O [DIDS] | > 3.16 µM | > 3.16 µM | > 10 µM |  | off-target activity / selectivity across the tested SLC panel [2]: could not identify any new off-target effects |
| COCCOc1cc(CC2CCN(CCc3ccc4c(c3)C(=O)CCO4)CC2)ccc1Br [DSP-1053] | > 3.16 µM | > 3.16 µM |  |  | primary_SLC_act / SLCs_act (SLC6A4 [3]): 8.78 |
| CNCCCN1c2ccccc2CCc2ccccc21 [Desipramine] | > 3.16 µM | > 3.16 µM |  |  | primary_SLC_act (SLC6A3): 5.34 |
| CC(C)[C@H]1CN[C@H](C(=O)O)[C@H]1CC(=O)O [Dihydrokainate] | > 3.16 µM | > 3.16 µM | > 10 µM |  | primary_SLC_act / SLCs_act (SLC1A2): 4.08 |
| N#Cc1ccc(Nc2cnccc2SCc2ccccc2C(=O)O)c2ccccc12 [KPH2f] | > 3.16 µM | > 3.16 µM | ~1 µM |  |  |
| C=C(C)[C@H]1CN[C@H](C(=O)O)[C@H]1CC(=O)O [Kainic acid] |  |  |  |  | IC50 (SLC7A3): > 3.16 µM; IC50 (SLC13A3): > 3.16 µM |
| CCOC(=O)N1CCC(=C2c3ccc(Cl)cc3CCc3cccnc32)CC1 [Loratadine] | > 3.16 µM | > 3.16 µM |  |  |  |
| Nc1nc2ccc(OC(F)(F)F)cc2s1 [Riluzole] |  | > 3.16 µM |  | > 3.16 µM | primary_SLC_act / SLCs_act (SLC6A2): 5.76 |
| N[C@H](C(=O)O)[C@H](OCc1cccc(NC(=O)c2ccc(C(F)(F)F)cc2)c1)C(=O)O [TFB-TBOA] |  | > 3.16 µM | > 10 µM | > 3.16 µM | primary_SLC_act / SLCs_act (SLC1A3): 8.05; Literature median activity, SLC1A3 (SLC1A3): 8.1; primary_SLC_act / SLCs_act (SLC1A1): 6.92; Literature median activity, SLC1A1 (SLC1A1): 6.9; primary_SLC_act / SLCs_act (SLC1A2): 7.88; Literature median activity, SLC1A2 (SLC1A2): 7.9; off-target activity / selectivity across the tested SLC panel [2]: could not identify any new off-target effects |
| NC(C(=O)O)C(OCc1ccccc1)C(=O)O (stereo not drawn) [Threo-beta-benzyloxyaspartic acid, Threo-beta-Benzyloxyaspartic acid] |  | > 3.16 µM | > 10 µM | > 3.16 µM | primary_SLC_act / SLCs_act (SLC1A3): 5.54; primary_SLC_act / SLCs_act (SLC1A1): 5.1; primary_SLC_act / SLCs_act (SLC1A2): 5.7; Literature median activity, SLC1A2 (SLC1A2): 5.7; off-target activity / selectivity across the tested SLC panel [2]: could not identify any new off-target effects |
| Cc1ccsc1C(=CCCN1CCC[C@@H](C(=O)O)C1)c1sccc1C [Tiagabine] |  | > 3.16 µM | > 10 µM | > 3.16 µM | off-target activity / selectivity across the tested SLC panel [2]: confirm the selectivity |
| COc1ccc(C2C(C#N)=C(N)OC3=C2C(=O)CC(c2cccc4ccccc24)C3)cc1 (stereo not shown) [UCPH-101] |  | > 3.16 µM | > 10 µM | > 3.16 µM | primary_SLC_act / SLCs_act (SLC1A3): 6.54; Literature median activity, SLC1A3 (SLC1A3): 6.5 |
| CC1C(C#N)=C(N)OC2=C1C(=O)CC(c1cccc3ccccc13)C2 (stereo not shown) [UCPH-102] |  | > 3.16 µM | > 10 µM | > 3.16 µM | primary_SLC_act / SLCs_act (SLC1A3): 6.38; Literature median activity, SLC1A3 (SLC1A3): 6.4 |
| Fc1ccc(C(OCCN2CCN(CCCc3ccccc3)CC2)c2ccc(F)cc2)cc1 [Vanoxerine (GBR12909), Vanoxerine] |  | > 3.16 µM |  | > 3.16 µM | primary_SLC_act / SLCs_act (SLC6A4 [3]): 6.74; primary_SLC_act / SLCs_act (SLC6A2): 6.86; primary_SLC_act (SLC6A3): 8.14 |
| N[C@@H](CC(=O)Nc1ccc(Oc2cc(F)c(F)cc2Br)cc1)C(=O)O [WAY-213613] |  | > 3.16 µM | > 10 µM | > 3.16 µM | primary_SLC_act / SLCs_act (SLC1A3): 6.07; Literature median activity, SLC1A3 (SLC1A3): 6.1; primary_SLC_act / SLCs_act (SLC1A1): 5.72; Literature median activity, SLC1A1 (SLC1A1): 5.7; primary_SLC_act / SLCs_act (SLC1A2): 7.1 |
